In this test the target is full-length ATR (Homo sapiens (Human), UniProt Q13535). As to the kind of experiment: ATR Inhibition Assay (radioactive-phosphate incorporation). Format: biochemical. To be noted: read-out: ATR Ki. The method, then:
Compounds were screened for their ability to inhibit ATR kinase using a radioactive-phosphate incorporation assay. Assays were carried out in a mixture of 50 mM Tris/HCl (pH 7.5), 10 mM MgCl2 and 1 mM DTT. Final substrate concentrations were […] [γ-33P]ATP (3mCi 33P ATP/mmol ATP, Perkin Elmer) and 800 μM target peptide ([…]).
Assays were carried out at 25° C. in the presence of 5 nM full-length ATR. An assay stock buffer solution was prepared containing all of the reagents listed above, with the exception of ATP and the test compound of interest. […] The plate was pre-incubated for 10 minutes at 25° C. and the reaction initiated by addition of 15 μL [γ-33P]ATP (final concentration 10 μM).
The reaction was stopped after […] by the addition of 30 μL 0.1M phosphoric acid containing 2 mM ATP. A multiscreen phosphocellulose filter 96-well plate (Millipore, Cat no. MAPHN0B50) was pretreated with 100 μL 0.2M phosphoric acid prior to the addition of 45 μL of the stopped assay mixture. […] After drying, 100 μL Optiphase ‘SuperMix’ liquid scintillation cocktail (Perkin Elmer) was added to the well prior to scintillation counting (1450 Microbeta Liquid Scintillation Counter, Wallac).
After removing mean background values for all of the data points, Ki(app) data were calculated from non-linear regression analysis of the initial rate data using the Prism software package (GraphPad Prism version 3.0cx for Macintosh, GraphPad Software, San Diego Calif., USA).

Molecules are shown by their SMILES.

Experimental findings from patent US10479784B2, “Substituted pyrazin-2-amines as inhibitors of ATR kinase” (Vertex Pharmaceuticals Incorporated, priority 2008, dated 2019) are described below.

Chain of full-length ATR (Q13535 whole entry): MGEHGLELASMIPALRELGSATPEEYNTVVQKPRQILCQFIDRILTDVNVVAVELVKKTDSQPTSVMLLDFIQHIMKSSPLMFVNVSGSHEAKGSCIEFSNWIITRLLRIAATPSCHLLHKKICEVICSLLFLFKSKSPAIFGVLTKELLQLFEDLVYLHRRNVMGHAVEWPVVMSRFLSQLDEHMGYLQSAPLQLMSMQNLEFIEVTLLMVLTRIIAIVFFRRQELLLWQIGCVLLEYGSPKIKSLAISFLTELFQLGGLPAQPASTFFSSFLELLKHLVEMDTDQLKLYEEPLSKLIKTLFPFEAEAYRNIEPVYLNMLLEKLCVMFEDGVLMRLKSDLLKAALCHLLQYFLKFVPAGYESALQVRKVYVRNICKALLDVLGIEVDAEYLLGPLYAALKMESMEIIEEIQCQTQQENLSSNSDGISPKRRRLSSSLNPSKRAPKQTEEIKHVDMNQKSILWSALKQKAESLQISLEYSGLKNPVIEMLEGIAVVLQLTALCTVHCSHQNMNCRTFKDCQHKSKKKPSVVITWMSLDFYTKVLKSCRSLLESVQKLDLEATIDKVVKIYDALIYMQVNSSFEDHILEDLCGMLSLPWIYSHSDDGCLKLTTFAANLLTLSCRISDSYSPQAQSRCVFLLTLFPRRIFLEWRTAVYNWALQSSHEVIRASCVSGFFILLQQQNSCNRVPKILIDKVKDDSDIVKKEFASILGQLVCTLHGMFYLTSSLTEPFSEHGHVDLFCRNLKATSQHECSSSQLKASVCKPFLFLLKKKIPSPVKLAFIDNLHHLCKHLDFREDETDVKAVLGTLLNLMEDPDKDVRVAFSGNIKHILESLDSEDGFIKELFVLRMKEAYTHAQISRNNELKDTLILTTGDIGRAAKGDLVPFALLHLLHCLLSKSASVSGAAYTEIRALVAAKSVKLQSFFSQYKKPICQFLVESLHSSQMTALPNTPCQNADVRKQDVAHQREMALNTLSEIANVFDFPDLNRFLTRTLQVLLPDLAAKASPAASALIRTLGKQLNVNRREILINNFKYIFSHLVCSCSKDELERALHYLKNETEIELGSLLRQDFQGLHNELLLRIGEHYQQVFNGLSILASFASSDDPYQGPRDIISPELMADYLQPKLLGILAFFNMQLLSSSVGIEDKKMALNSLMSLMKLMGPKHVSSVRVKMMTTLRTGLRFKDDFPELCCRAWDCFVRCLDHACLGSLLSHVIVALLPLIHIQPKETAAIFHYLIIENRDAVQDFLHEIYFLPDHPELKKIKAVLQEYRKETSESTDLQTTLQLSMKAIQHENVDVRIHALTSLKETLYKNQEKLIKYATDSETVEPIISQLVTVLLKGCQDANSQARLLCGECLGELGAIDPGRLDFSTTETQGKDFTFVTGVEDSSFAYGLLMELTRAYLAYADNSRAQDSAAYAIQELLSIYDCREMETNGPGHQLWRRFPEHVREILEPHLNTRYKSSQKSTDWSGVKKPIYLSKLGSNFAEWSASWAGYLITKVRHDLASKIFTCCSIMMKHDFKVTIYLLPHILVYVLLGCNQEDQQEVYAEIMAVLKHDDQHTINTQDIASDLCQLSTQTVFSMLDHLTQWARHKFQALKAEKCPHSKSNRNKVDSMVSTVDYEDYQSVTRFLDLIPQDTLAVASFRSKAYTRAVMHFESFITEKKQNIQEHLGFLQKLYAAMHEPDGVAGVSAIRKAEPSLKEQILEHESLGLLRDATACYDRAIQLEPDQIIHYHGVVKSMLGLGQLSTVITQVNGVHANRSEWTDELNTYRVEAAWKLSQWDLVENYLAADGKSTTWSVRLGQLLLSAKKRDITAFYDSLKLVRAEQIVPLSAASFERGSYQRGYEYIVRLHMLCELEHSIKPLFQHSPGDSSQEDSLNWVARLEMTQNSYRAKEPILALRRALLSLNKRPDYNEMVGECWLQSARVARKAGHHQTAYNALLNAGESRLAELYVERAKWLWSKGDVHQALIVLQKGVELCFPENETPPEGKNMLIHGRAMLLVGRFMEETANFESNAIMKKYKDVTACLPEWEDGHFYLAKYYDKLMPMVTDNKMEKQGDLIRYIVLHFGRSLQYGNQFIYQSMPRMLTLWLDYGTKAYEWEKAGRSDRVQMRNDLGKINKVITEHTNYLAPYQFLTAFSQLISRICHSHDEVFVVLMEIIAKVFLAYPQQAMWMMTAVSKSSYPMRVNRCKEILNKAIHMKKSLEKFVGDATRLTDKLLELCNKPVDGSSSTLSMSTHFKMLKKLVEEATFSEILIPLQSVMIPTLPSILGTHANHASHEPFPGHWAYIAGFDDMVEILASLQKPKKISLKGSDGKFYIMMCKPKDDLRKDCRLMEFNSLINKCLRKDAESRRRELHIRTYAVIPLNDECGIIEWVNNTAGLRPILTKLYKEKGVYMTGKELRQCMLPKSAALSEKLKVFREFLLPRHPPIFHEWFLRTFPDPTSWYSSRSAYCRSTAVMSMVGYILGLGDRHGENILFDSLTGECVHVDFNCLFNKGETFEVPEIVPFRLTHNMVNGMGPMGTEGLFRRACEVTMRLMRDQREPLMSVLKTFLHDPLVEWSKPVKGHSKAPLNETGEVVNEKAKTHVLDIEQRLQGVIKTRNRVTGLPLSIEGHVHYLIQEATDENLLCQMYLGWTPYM

Regarding `CC(C)S(=O)(=O)c1ccc(-c2cnc(N)c(-c3nnc(-c4ccccc4)o3)n2)c(C#N)c1` [IA-132, 2-[5-amino-6-(5-phenyl-1,3,4-oxadiazol-2-yl)pyrazin-2-yl]-5-isopropylsulfonyl-benzonitrile], the Ki – broadly, the equilibrium dissociation constant of an inhibitor or competing ligand from its target – was at most 10 nM.

Turning to `CC(C)S(=O)(=O)c1ccccc1-c1cnc(N)c(-c2nnc(-c3ccccc3)o2)n1` [IA-121, 5-(2-isopropylsulfonylphenyl)-3-(5-phenyl-1,3,4-oxadiazol-2-yl)pyrazin-2-amine], the inhibition constant (Ki) was in the range of 100 to 5000 nM.

As for `Cc1ccc2nc(-c3nc(-c4ccc(C(=O)N5CCCNCC5)cc4)cnc3N)[nH]c2c1` [III-1, (4-(5-amino-6-(6-methyl-1H-benzo[d]imidazol-2-yl)pyrazin-2-yl)phenyl) (1,4-diazepan-1-yl)methanone], the Ki lay in the range of 10 to 100 nM.

Consider `Nc1ncc(-c2ccc(S(=O)(=O)C3CCOC3)cc2)nc1-c1nnc(-c2ccccc2F)o1` (stereo not drawn) [IA-349, 3-[5-(2-fluorophenyl)-1,3,4-oxadiazol-2-yl]-5-(4-tetrahydrofuran-3-ylsulfonylphenyl)pyrazin-2-amine], for which the inhibition constant (Ki) was at most 10 nM.

On to `Nc1ncc(-c2ccc(C(=O)N3CCCNCC3)cc2)nc1-c1nnc(-c2ccccc2)o1` [IA-1], for which the Ki was at most 10 nM.

For the compound `Cc1ccc2nc(-c3nc(-c4ccc(C(=O)N5CCC(N(C)C)CC5)cc4)cnc3N)[nH]c2c1` [Compound I-148, (4-(5-amino-6-(6-methyl-1H-benzo[d]imidazol-2-yl)pyrazin-2-yl)phenyl)(4-(dimethylamino)piperidin-1-yl)methanone], the Ki lay in the range of 10 to 100 nM.

For the compound `CCC1CN(C(=O)c2ccc(-c3cnc(N)c(-c4nnc(-c5ccccc5)o4)n3)cc2)CCN1` (stereo not drawn) [IA-18], the Ki is at most 10 nM.

For the compound `Cc1cccc(-c2nnc(-c3nc(-c4ccc(C(=O)N(C)C)cc4)cnc3N)o2)c1` [IA-237, 4-[5-amino-6-[5-(m-tolyl)-1,3,4-oxadiazol-2-yl]pyrazin-2-yl]-N,N-dimethyl-benzamide], the Ki was in the range of 10 to 100 nM.

In the case of `CNCc1ccc(NC(=O)c2nc(-c3ccc(S(=O)(=O)C(C)C)cc3)cnc2N)cc1` [VII-11], the inhibition constant (Ki) was in the range of 10 to 100 nM.

With `CN(C)Cc1ccc(-c2cnc(N)c(-c3nnc(-c4ccc(CO)cc4)o3)n2)cc1` [IA-240, [4-[5-[3-amino-6-[4-(dimethylaminomethyl)phenyl]pyrazin-2-yl]-1,3,4-oxadiazol-2-yl]phenyl]methanol], the inhibitory constant (Ki) lay in the range of 100 to 5000 nM.

For `CC(C)S(=O)(=O)c1ccc(-c2cnc(N)c(-c3nnc(C(=O)N4CCCC(N)C4)o3)n2)cc1` (stereo not drawn) [IA-98, [5-[3-amino-6-(4-isopropylsulfonylphenyl)pyrazin-2-yl]-1,3,4-oxadiazol-2-yl]-(3-amino-1-piperidyl)methanone], the Ki was in the range of 10 to 100 nM.

For the compound `CN(C)C(=O)c1ccc(-c2cnc(N)c(-c3nnc(Nc4cccc(Cl)c4)o3)n2)cc1` [IA-43], the Ki lay within 10 to 100 nM.

`CN(C)C(=O)c1ccc(-c2cnc(N)c(-c3nnc(Nc4ccccc4)o3)n2)cc1` [IA-32]: the Ki is 10 to 100 nM.

`Cc1ccc2nc(-c3nc(-c4ccc(C(=O)N5CCCN(C)CC5)cc4)cnc3N)[nH]c2c1` [Compound I-151, (4-(5-amino-6-(6-methyl-1H-benzo[d]imidazol-2-yl)pyrazin-2-yl)phenyl)(4-methyl-1,4-diazepan-1-yl)methanone]: the Ki lay in the range of 10 to 100 nM.

Consider `CN(C)C(=O)c1ccc(-c2cnc(N)c(-c3nnc(NCc4ccccc4)o3)n2)cc1` [IA-55, 4-(5-amino-6-(5-(benzylamino)-1,3,4-oxadiazol-2-yl)pyrazin-2-yl)-N,N-dimethylbenzamide], for which the Ki was 100 to 5000 nM.

Take `CNCc1ccc(-c2nnc(-c3nc(-c4ccc(S(=O)(=O)C(C)C)cc4)cnc3N)o2)cc1Cl` [IA-309, 3-[5-[3-chloro-4-(methylaminomethyl)phenyl]-1,3,4-oxadiazol-2-yl]-5-(4-isopropylsulfonylphenyl)pyrazin-2-amine]: the Ki was at most 10 nM.

`CC(C)(C)OC(=O)N1CCCN(C(=O)c2ccc(-c3cnc(N)c(-c4nnc(-c5ccccc5)o4)n3)c(C#N)c2)CC1` [IA-19]: the Ki was at most 10 nM.

In the case of `CNCc1ccc(-c2nnc(-c3nc(-c4ccc(S(=O)(=O)C(C)C)c(F)c4)cnc3N)o2)cc1` [IA-314, 5-(3-fluoro-4-isopropylsulfonyl-phenyl)-3-[5-[4-(methylaminomethyl)phenyl]-1,3,4-oxadiazol-2-yl]pyrazin-2-amine], the Ki was at most 10 nM.

On to `CC(C)S(=O)(=O)c1ccc(-c2cnc(N)c(-c3nnc(-c4ccc(CNCCF)cc4)o3)n2)cc1` [IA-346, 3-[5-[4-[(2-fluoroethylamino)methyl]phenyl]-1,3,4-oxadiazol-2-yl]-5-(4-isopropylsulfonylphenyl)pyrazin-2-amine], for which the Ki was at most 10 nM.

Take `Cc1ccc2nc(-c3nc(-c4ccc(C(=O)N5CCNCC5)cc4)cnc3N)[nH]c2c1` [III-3, (4-(5-amino-6-(6-methyl-1H-benzo[d]imidazol-2-yl)pyrazin-2-yl)phenyl)(piperazin-1-yl)methanone]: the Ki lay in the range of 10 to 100 nM.

`CN(C)C(=O)c1ccc(-c2cnc(N)c(-c3nnc(-c4ccccc4O)o3)n2)cc1` [IA-215, 4-[5-amino-6-[5-(2-hydroxyphenyl)-1,3,4-oxadiazol-2-yl]pyrazin-2-yl]-N,N-dimethyl-benzamide]: the Ki was at most 10 nM.

For the compound `Nc1ncc(-c2ccc(C(=O)N3CCCNCC3)cc2)nc1C(=O)Nc1cc2ccccc2[nH]1` [Compound V-26], the inhibition constant Ki was in the range of 100 to 5000 nM.

Regarding `Nc1ncc(-c2cccnc2)nc1C(=O)Nc1ccccc1` [Compound I-85, 3-amino-N-phenyl-6-(pyridin-3-yl)pyrazine-2-carboxamide], the Ki lay within 10 to 100 nM.

As for `Nc1ncc(-c2cccc(OC(F)(F)F)c2)nc1-c1nnc(-c2ccccc2)o1` [IA-150, 3-(5-phenyl-1,3,4-oxadiazol-2-yl)-5-[3-(trifluoromethoxy)phenyl]pyrazin-2-amine], the Ki was 100 to 5000 nM.

As to `CN(C)C(=O)c1ccc(-c2cnc(N)c(-c3nnc(-c4ccccc4)o3)n2)c(-c2cnco2)c1` [IA-161, 4-[5-amino-6-(5-phenyl-1,3,4-oxadiazol-2-yl)pyrazin-2-yl]-N,N-dimethyl-3-oxazol-5-yl-benzamide], the Ki was 10 to 100 nM.

As for `CNCc1ccc(-c2nnc(-c3nc(-c4ccc(S(=O)(=O)C(C)C)cc4C)cnc3N)o2)cc1` [IA-293, 5-(4-isopropylsulfonyl-2-methyl-phenyl)-3-[5-[4-(methylaminomethyl)phenyl]-1,3,4-oxadiazol-2-yl]pyrazin-2-amine], the inhibitory constant (Ki) is at most 10 nM.

For `CN(C)C(=O)c1ccc(-c2cnc(N)c(-c3nnc(-c4ccc(CN)cc4)o3)n2)cc1` [IA-234, 4-[5-amino-6-[5-[4-(aminomethyl)phenyl]-1,3,4-oxadiazol-2-yl]pyrazin-2-yl]-N,N-dimethyl-benzamide], the inhibitory constant (Ki) is at most 10 nM.

With `CNCc1ccc(-c2nnc(-c3nc(-c4ccc(S(=O)(=O)C5CCOCC5)cc4)cnc3N)o2)c(F)c1` [IA-344, 3-[5-[2-fluoro-4-(methylaminomethyl)phenyl]-1,3,4-oxadiazol-2-yl]-5-(4-tetrahydropyran-4-ylsulfonylphenyl)pyrazin-2-amine], the Ki is at most 10 nM.

On to `Nc1ncc(-c2ccc(C(=O)CN3CCC(O)CC3)cc2)nc1C(=O)Nc1ccccc1` [Compound I-23, 3-amino-6-(4-(2-(4-hydroxypiperidin-1-yl)acetyl)phenyl)-N-phenylpyrazine-2-carboxamide], for which the Ki is 10 to 100 nM.

With `CC(C)S(=O)(=O)c1ccc(-c2cnc(N)c(-c3nnc(-c4ccc(CNCCO)cc4)o3)n2)cc1` [IA-178, 2-(4-(5-(3-amino-6-(4-(isopropylsulfonyl)phenyl)pyrazin-2-yl)-1,3,4-oxadiazol-2-yl)benzylamino)ethanol], the Ki was at most 10 nM.

Turning to `CC(C)S(=O)(=O)c1ccc(-c2cnc(N)c(-c3nnc(-c4ccc([C@@H](C)N)cc4)o3)n2)cc1` [IA-124, 3-[5-[4-[(1R)-1-aminoethyl]phenyl]-1,3,4-oxadiazol-2-yl]-5-(4-isopropylsulfonylphenyl)pyrazin-2-amine], the Ki was at most 10 nM.

Take `CNCc1ccc(-c2nnc(-c3nc(-c4ccc(S(=O)(=O)C5CCOCC5)cc4)cnc3N)o2)cc1` [IA-323, 3-[5-[4-(methylaminomethyl)phenyl]-1,3,4-oxadiazol-2-yl]-5-(4-tetrahydropyran-4-ylsulfonylphenyl)pyrazin-2-amine]: the Ki is at most 10 nM.

As to `CC(CCN(C)C)S(=O)(=O)c1ccc(-c2cnc(N)c(-c3nnc(-c4ccccc4F)o3)n2)cc1` (stereo not drawn) [IA-343, 5-[4-[3-(dimethylamino)-1-methyl-propyl]sulfonylphenyl]-3-[5-(2-fluorophenyl)-1,3,4-oxadiazol-2-yl]pyrazin-2-amine], the Ki is at most 10 nM.

As for `CS(=O)(=O)c1cccc(-c2cnc(N)c(C(=O)Nc3ccccc3)n2)c1` [Compound I-3], the Ki lay in the range of 100 to 5000 nM.

Consider `CS(=O)(=O)c1ccc(-c2cnc(N)c(-c3nc4cccnc4[nH]3)n2)cc1` [Compound I-112, 3-(3H-imidazo[4,5-b]pyridin-2-yl)-5-(4-(methylsulfonyl)phenyl) pyrazin-2-amine], for which the Ki is at most 10 nM.

As for `CC(C)S(=O)(=O)c1ccc(-c2cnc(N)c(-c3nnc(N4CCCC(N)C4)o3)n2)cc1` (stereo not drawn) [IA-206, 3-[5-(3-amino-1-piperidyl)-1,3,4-oxadiazol-2-yl]-5-(4-isopropylsulfonylphenyl)pyrazin-2-amine], the Ki lay in the range of 100 to 5000 nM.
